Structures can show the parent of a compound that is named as a salt.
Tests used:
RBE4 cells = experiment: [3H]-GHB uptake in RBE4 cells; type: cell-based, rat; conditions: for GHB uptake compared with GHB alone / GHB uptake in the presence of staurosporine: 10 mM GHB; for GHB uptake in the presence of staurosporine: 2 h pre-incubation with ketamine 40 µM or PMA 100 nM plus staurosporine
Procedure: The immortalized rat brain capillary endothelial cell line (RBE4) was kindly provided by Professor P. Couraud (Institut Cochin, Paris, France). RBE4 cells (passages 39–44) were used in all studies, as described previously. Briefly, cells were grown at 37 °C with 5% CO2 on Type-I collagen-coated flasks, and media was changed every 2–3 days. The culture medium was 1:1 α-minimum essentials medium/Hams F10 nutrient mixture supplemented with L-glutamine (2.0 mM), geneticin (300 μg/mL), human recombinant fibroblast growth factor (1 ng/mL), gentamicin (50 μg/mL), and 10% v/v fetal bovine serum (FBS). Cells were passaged using 0.25% trypsin/EDTA and seeded on individual 35 × 10 mm collagen-coated wells for uptake studies which were performed 7 days post-confluence (the time needed for formation of tight junctions).
In addition, the effect of various pre-incubation times with ketamine (0.5, 2, 4, 8 and 24 h) was also studied in these cells. […] After cell lysis, NaOH was neutralized with 0.5 mL 1.0 N HCl.

[1] = GHB toxicokinetics (plasma and urine, noncompartmental analysis); conditions: for Ketamine plasma concentration in the study: ketamine 6 mg/kg i.v. bolus + 1 mg/kg/min infusion, maintained up to 1 h
[2] = cited from earlier work
Sprague-Dawley rats [3] = experiment: GHB-induced respiratory depression, whole-body plethysmography; conditions: for Respiratory depression (in words): ketamine alone, or naloxone 2 mg/kg i.v. with or without SCH50911 10 mg/kg given 5 min after GHB-ketamine; for Breathing frequency (in words) / Minute volume (in words) / Tidal volume (in words): GHB 600 mg/kg i.v. alone or with ketamine 6 mg/kg + 1 mg/kg/min, treatments 5 min after GHB-ketamine, compared to GHB-ketamine
Sprague-Dawley rats [4] = experiment: Fatality after GHB with or without ketamine; conditions: GHB 400 mg/kg i.v. bolus + 208 mg/kg/h infusion and/or ketamine 6 mg/kg bolus + 1 mg/kg/min infusion; n = 8
Sprague-Dawley rats [5] = experiment: Sedative effect (sleep time, righting reflex); conditions: GHB 400 mg/kg i.v. + ketamine 6 or 20 mg/kg i.v.; compared to GHB or ketamine alone
[6] = design: method as in PMID 12667908; conditions: GHB 400 mg/kg i.v. alone; cited from earlier work
[7] = GHB blood-brain partitioning at steady state; conditions: GHB 400 mg/kg i.v. bolus + 208 mg/kg/h infusion alone; steady state 4 h
[8] = GHB 600 mg/kg i.v. bolus, ketamine 6 mg/kg i.v. bolus + 1 mg/kg/min infusion, L-lactate 66 mg/kg + 302.5 mg/kg/h, AR-C155858 1 mg/kg, SCH50911 10 mg/kg or naloxone 2 mg/kg i.v. 5 min after GHB-ketamine

**Q.** With CNC1(c2ccccc2Cl)CCCCC1=O (racemic) [ketamine, (±) Ketamine Hydrochloride] as the compound, how does the “GHB uptake compared with GHB alone” value (RBE4 cells; 15 s, 2 h pre-incubation with ketamine 5, 15 or 40 µM at 37 °C) read?
**A.** significantly increased

**Q.** What about the “GHB uptake compared with GHB alone” value (RBE4 cells; 15 s, ketamine 5, 15, 40 µM without pre-incubation) of the same compound?
**A.** no significant change in GHB uptake

**Q.** What about the “GHB uptake compared with GHB alone” value (RBE4 cells; 0.5, 2 and 4 h pre-incubation with 40 µM ketamine) of the same compound?
**A.** significant increases in GHB uptake

**Q.** And the “GHB uptake in the presence of staurosporine” value (RBE4 cells)?
**A.** no increase in GHB uptake

**Q.** What about the “GHB uptake compared with GHB alone” value (RBE4 cells; longer pre-incubation times (8 and 24 h) with 40 µM ketamine) of the same compound?
**A.** no significant changes

**Q.** And the “Steady-state concentration of ketamine with GHB compared to ketamine alone” value ([1]; GHB 600 mg/kg i.v., ketamine 6 mg/kg bolus + 1 mg/kg/min for 60 min)?
**A.** no significant difference

**Q.** And the “Ketamine plasma concentration in the study” value [1]?
**A.** ~ 7 µg/mL

**Q.** And the “Ketamine plasma concentration in the study” value ([1]; listed as Ketamine)?
**A.** 7 µg/mL

**Q.** What about the “Ketamine plasma concentrations associated with fatalities” value [2] of the same compound?
**A.** 1.8 to 27.4 µg/mL

**Q.** And the “Respiratory depression (in words)” value (Sprague-Dawley rats [3])?
**A.** did not result in any significant respiratory depression

**Q.** What about the Fatality (Sprague-Dawley rats [4]) of the same compound?
**A.** No death was observed

**Q.** What about the “Effect of co-administration on GHB sleep time” value (Sprague-Dawley rats [5]) of the same compound?
**A.** significant increase in sleep time

**Q.** Which “Breathing frequency (in words)” value (Sprague-Dawley rats [3]) does the source give for Cc1n[nH]c(C)c1Cc1sc2c(c1C(=O)N1C[C@H](O)CO1)c(=O)n(C)c(=O)n2CC(C)C [AR-C155858, 6-[(3,5-Dimethyl-1H-pyrazol-4-yl)methyl]-5-[[(4S)-4-hydroxy-2-isoxazolidinyl]carbonyl]-3-methyl-1-(2-methylpropyl)thieno [2,3-d]pyrimidine-2,4(1H,3H)-dione] here?
**A.** significant and rapid improvement in breathing frequency

**Q.** What about the “Minute volume (in words)” value (Sprague-Dawley rats [3]) of the same compound?
**A.** completely reversed the decline in minute volume

**Q.** For O=C(O)CCCO [GHB, γ-hydroxybutyric acid], which “Cbrain (brain GHB concentration at RRR)” value [6] is on record?
**A.** 71.7 ± 9.89 µg/g

**Q.** What about the “Cplasma (plasma GHB concentration at RRR)” value [6] of the same compound?
**A.** 379 ± 86.2 µg/mL

**Q.** What about the “Cbrain GHB” value [7] of the same compound?
**A.** 0.21 ± 0.03 mg/g

**Q.** What about the “Breathing frequency (in words)” value (Sprague-Dawley rats [3]) of the same compound?
**A.** decrease in breathing frequency

**Q.** What about the “Minute volume (in words)” value (Sprague-Dawley rats [3]) of the same compound?
**A.** remaining unchanged

**Q.** And the “Tidal volume (in words)” value (Sprague-Dawley rats [3])?
**A.** compensatory increase in tidal volume

**Q.** What about the “Frequency AUEC” value (Sprague-Dawley rats [3]; [8]) of the same compound?
**A.** 5540 ± 1000 breaths

**Q.** What about the “Frequency Emax” value (Sprague-Dawley rats [3]; [8]) of the same compound?
**A.** 31 ± 5 breaths/min

**Q.** And the “Frequency Td” value (Sprague-Dawley rats [3]; [8])?
**A.** 153 ± 12.5 min

**Q.** What about the Fatality (Sprague-Dawley rats [4]) of the same compound?
**A.** No death was observed

**Q.** Which results are given for C[C@H](O)C(=O)[O-].[Na+] [L-lactate, sodium L-lactate]?
**A.** Breathing frequency (in words) (Sprague-Dawley rats [3]): significant improvement in breathing frequency and minute volume; Minute volume (in words) (Sprague-Dawley rats [3]): significant improvement in breathing frequency and minute volume; Tidal volume (in words) (Sprague-Dawley rats [3]): no change in tidal volume

**Q.** With C=CCN1CC[C@]23c4c5ccc(O)c4O[C@H]2C(=O)CC[C@@]3(O)[C@H]1C5 [Naloxone, naloxone hydrochloride dihydrate] as the compound, how does the “Respiratory depression (in words)” value (Sprague-Dawley rats [3]) read?
**A.** no effects

**Q.** Which “GHB uptake compared with GHB alone” value (RBE4 cells; 2 h pre-incubation with PMA 100 nM) does the source give for CCCCCCCCCCCCCC(=O)O[C@@H]1[C@@H](C)[C@@]2(O)[C@@H](C=C(CO)C[C@]3(O)C(=O)C(C)=C[C@@H]23)[C@@H]2C(C)(C)[C@]12OC(C)=O [PMA, phorbol 12-myristate 13-acetate] here?
**A.** significant increase in GHB uptake

**Q.** What about the “GHB uptake in the presence of staurosporine” value (RBE4 cells) of the same compound?
**A.** no increase in GHB uptake

**Q.** For CC1(C)CO[C@@H](CC(=O)O)CN1 [SCH50911, (2S)-(+)-5,5-Dimethyl-2-morpholineacetic acid], which “Breathing frequency (in words)” value (Sprague-Dawley rats [3]) is on record?
**A.** significant improvement in breathing frequency and minute volume

**Q.** And the “Minute volume (in words)” value (Sprague-Dawley rats [3])?
**A.** significant improvement in breathing frequency and minute volume

**Q.** What about the “Tidal volume (in words)” value (Sprague-Dawley rats [3]) of the same compound?
**A.** compensatory increase in tidal volume was also absent

**Q.** For CN[C@@H]1C[C@H]2O[C@@](C)([C@@H]1OC)n1c3ccccc3c3c4c(c5c6ccccc6n2c5c31)C(=O)NC4 [staurosporine], which “Effect on the increase in GHB uptake by PMA and ketamine” value (RBE4 cells; RBE4 cells, co-incubation during 2 h pre-incubation) is on record?
**A.** significantly inhibited
